# From patent publication US20230104936A1, “TRPML MODULATORS” (Casma Therapeutics, Inc., priority 2019, published 2023)
# System: TFEB
# Test: TFEB nuclear translocation assay, HeLa wt cells
# Type: cell-based
# Conditions: 2 hrs compound treatment, Table 1 does not say HeLa wt or TRPML1 KO
# Outline: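 HeLa wt, 2 hr compound, 37° C; 4% PFA fix; anti-TFEB (rabbit, 1:200, overnight 4° C) + Alexa 488 secondary, Hoechst. Imaged ×20, 4 fields/well. Readout: nuclear/ring Alexa 488 intensity ratio; AC50.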
Structure (SMILES),"AC50 (Homo sapiens, HeLa, 2 h) [nM]",AC50 [nM]
"O=S(=O)(Nc1ccccc1N1CCN(c2ncc(Cl)cc2F)CC1)c1ccc(S(=O)(=O)C(F)(F)F)cc1 [Compound A-178, N-{2-[4-(5-chloro-3-fluoropyridin-2-yl)piperazin-1-yl]phenyl}-4-trifluoromethanesulfonylbenzene-1-sulfonamide]",≤ 2000,
"COCC1(C)CCN(c2ccccc2NS(=O)(=O)c2cccc(C(C)(C)OC)c2)CC1 [Compound A-633, N-{2-[4-(methoxymethyl)-4-methylpiperidin-1-yl]phenyl}-3-(2-methoxypropan-2-yl)benzene-1-sulfonamide]",2010 to 8000,
"CN(C)S(=O)(=O)c1ccc(S(=O)(=O)Nc2ccccc2N2CCN(CC3CCCO3)CC2)cc1 (stereo not drawn) [Compound A-495, N1,N1-dimethyl-N4-(2-{4-[(oxolan-2-yl)methyl]piperazin-1-yl}phenyl)benzene-1,4-disulfonamide]",8010 to 9990,
"CN1CC2(CCN(c3ccccc3NS(=O)(=O)c3ccc(S(=O)(=O)N(C)C)cc3)CC2)c2ccncc21 [Compound A-412, N1,N1-dimethyl-N4-(2-{1′-methyl-1′,2′-dihydrospiro[piperidine-4,3′-pyrrolo[2,3-c]pyridin]-1-yl}phenyl)benzene-1,4-disulfonamide]",≤ 2000,
"CN(C)S(=O)(=O)c1ccc(S(=O)(=O)Nc2ccccc2N2CCC(C#N)(c3ccc(F)cc3F)CC2)cc1 [Compound A-175, N4-{2-[4-cyano-4-(2,4-difluorophenyl)piperidin-1-yl]phenyl}-N1,N1-dimethylbenzene-1,4-disulfonamide]",≤ 2000,
"CN(C)S(=N)(=O)c1ccc(S(=O)(=O)Nc2ccccc2N2CCN(C(=O)C(C)(C)C)CC2)cc1 (stereo not drawn) [Compound A-321, 4-({2-[4-(2,2-dimethylpropanoyl)piperazin-1-yl]phenyl}sulfamoyl)-N,N-dimethylbenzene-1-sulfonoimidamide]",≥ 10000,
"CN(C)S(=O)(=O)c1ccc(S(=O)(=O)Nc2cccc(F)c2N2CCC(CN3CC4CCC(C3)O4)CC2)cc1 [Compound A-762, N4-{3-fluoro-2-[4-({8-oxa-3-azabicyclo[3.2.1]octan-3-yl}methyl)piperidin-1-yl]phenyl}-N1,N1-dimethylbenzene-1,4-disulfonamide]",≤ 2000,
"C[C@@H](c1cccc(F)c1N1CCCCC1)S(=O)(=O)c1ccc(S(=N)(=O)N(C)C)cc1 (single isomer, unassigned) [Compound A-929]",≤ 2000,
"CC(C)(C)C(=O)N1CCN(c2ccccc2NS(=O)(=O)C2(c3ccccc3)CC2)CC1 [Compound A-564, N-{2-[4-(2,2-dimethylpropanoyl)piperazin-1-yl]phenyl}-1-phenylcyclopropane-1-sulfonamide]",≤ 2000,
"CC(C)c1ccc(S(=O)(=O)Nc2ccccc2N2CCN(C(=O)C(C)(C)C)CC2)cc1 [Compound A-512, N-{2-[4-(2,2-dimethylpropanoyl)piperazin-1-yl]phenyl}-4-(propan-2-yl)benzene-1-sulfonamide]",2010 to 8000,
"CC(N1CCN(c2ccccc2NS(=O)(=O)c2ccc(S(=O)(=O)N(C)C)cc2)CC1)C(F)(F)F (stereo not drawn) [Compound A-456, N1,N1-dimethyl-N4-{2-[4-(1,1,1-trifluoropropan-2-yl)piperazin-1-yl]phenyl}benzene-1,4-disulfonamide]",≤ 2000,
"COCC1(C)CCN(c2c(F)cccc2NS(=O)(=O)c2ccc(S(=O)(=O)N(C)C)cc2)CC1 [Compound A-681, N4-{3-fluoro-2-[4-(methoxymethyl)-4-methylpiperidin-1-yl]phenyl}-N1,N1-dimethylbenzene-1,4-disulfonamide]",≤ 2000,
"CN(C)S(=O)(=O)c1ccc(S(=O)(=O)Nc2ccccc2[C@H]2CC[C@H](c3ccc(Cl)cc3F)CC2)cc1 [Compound A-70, N1-(2-(4-(4-chloro-2-fluorophenyl)cyclohexyl)phenyl)-N4,N4-dimethylbenzene-1,4-disulfonamide]",≤ 2000,
"CN(C)S(=O)(=O)c1ccc(S(=O)(=O)Nc2cccc(F)c2N2CCC(N3CCC4(CCOC4)C3)CC2)cc1 (single isomer, unassigned) [Compound A-910, N1-(2-(4-(2-oxa-7-azaspiro[4.4]nonan-7-yl)piperidin-1-yl)-3-fluorophenyl)-N4,N4-dimethylbenzene-1,4-disulfonamide]",,2010 to 8000
"CN1CCc2ccccc2C12CCN(c1ccccc1NS(=O)(=O)c1ccc(S(C)(=O)=O)cc1)CC2 [Compound A-441, N-(2-(2-methyl-3,4-dihydro-2H-spiro[isoquinoline-1,4′-piperidin]-1′-yl)phenyl)-4-(methylsulfonyl)benzenesulfonamide]",2010 to 8000,
"C[C@H]1CN(CC2CCN(c3c(F)cccc3NS(=O)(=O)c3ccc(S(=O)(=O)N(C)C)cc3)CC2)C[C@H](C)O1 (racemic) [Compound A-843, rel-N1-(2-(4-((2,6-dimethylmorpholino)methyl)piperidin-1-yl)-3-fluorophenyl)-N4,N4-dimethylbenzene-1,4-disulfonamide]",≤ 2000,
"CC(c1ccccc1N1CCN(C(=O)C(C)(C)C)CC1)S(=O)(=O)c1ccc(S(=O)(=O)N(C)C)cc1 (stereo not drawn) [Compound A-474, 4-(1-{2-[4-(2,2-dimethylpropanoyl)piperazin-1-yl]phenyl}ethanesulfonyl)-N,N-dimethylbenzene-1-sulfonamide]",2010 to 8000,

Structure (SMILES),"AC50 (Homo sapiens, HeLa, 2 h) [nM]",AC50 [nM]
"O=S(=O)(Nc1ccccc1N1CCC(c2ccc(Cl)cc2F)CC1)c1ccccc1F [Compound A-79, N-{2-[4-(4-chloro-2-fluorophenyl)piperidin-1-yl]phenyl}-2-fluorobenzene-1-sulfonamide]",≥ 10000,
"CN(C)S(=O)(=O)c1ccc(S(=O)(=O)Nc2ccccc2N2CC(c3ccc(Cl)cc3)C2)cc1 [Compound A-56, N4-{2-[3-(4-chlorophenyl)azetidin-1-yl]phenyl}-N1,N1-dimethylbenzene-1,4-disulfonamide]",2010 to 8000,
"COCC1(C)CCN(c2ccccc2NS(=O)(=O)c2ccc3c(c2)CC(C)(C)O3)CC1 [Compound A-613, N-{2-[4-(methoxymethyl)-4-methylpiperidin-1-yl]phenyl}-2,2-dimethyl-2,3-dihydro-1-benzofuran-5-sulfonamide]",≤ 2000,
"Cc1ccc(S(=O)(=O)Nc2ccccc2N2CCC(c3ccc(Cl)cc3F)CC2)cc1 [Compound A-72, N-{2-[4-(4-chloro-2-fluorophenyl)piperidin-1-yl]phenyl}-4-methylbenzene-1-sulfonamide]",≤ 2000,
"CN(C)S(=O)(=O)c1ccc(S(=O)(=O)Nc2cccc(N3CCC(c4ccc(Cl)cc4F)CC3)n2)cc1 [Compound A-134, N4-{6-[4-(4-chloro-2-fluorophenyl)piperidin-1-yl]pyridin-2-yl}-N1,N1-dimethylbenzene-1,4-disulfonamide]",≥ 10000,
"C[C@@H]1CN(CC2(F)CCN(c3c(F)cccc3NS(=O)(=O)c3ccc(S(=O)(=O)N(C)C)cc3)CC2)C[C@H](C)O1 [Compound A-794, N4-[2-(4-{[(2R,6S)-2,6-dimethylmorpholin-4-yl]methyl}-4-fluoropiperidin-1-yl)-3-fluorophenyl]-N1,N1-dimethylbenzene-1,4-disulfonamide]",≤ 2000,
"CN1Cc2cc(F)ccc2C12CCN(c1ccccc1NS(=O)(=O)c1ccc(S(=O)(=O)N(C)C)cc1)CC2 [Compound A-310, N4-(2-{5-fluoro-2-methyl-2,3-dihydrospiro[isoindole-1,4′-piperidin]-1′-yl}phenyl)-N1,N1-dimethylbenzene-1,4-disulfonamide; formic acid]",≤ 2000,
"C[C@@H]1CN(CC2CCN(c3c(Br)cccc3NS(=O)(=O)c3ccc(S(=O)(=O)N(C)C)cc3)CC2)C[C@H](C)O1 [Compound A-864, N4-[3-bromo-2-(4-{[(2R,6S)-2,6-dimethylmorpholin-4-yl]methyl}piperidin-1-yl)phenyl]-N1,N1-dimethylbenzene-1,4-disulfonamide]",≤ 2000,
"O=S(=O)(Nc1ccccc1N1CCC(c2ccc(Cl)cc2F)CC1)c1ccc(Cl)cc1 [Compound A-73, 4-chloro-N-{2-[4-(4-chloro-2-fluorophenyl)piperidin-1-yl]phenyl}benzene-1-sulfonamide]",≤ 2000,
"CN(C)S(=O)(=O)c1ccc(S(=O)(=O)Cc2cccc(Cl)c2N2CCOCC2)cc1 [Compound A-327, 4-{[3-chloro-2-(morpholin-4-yl)phenyl]methanesulfonyl}-N,N-dimethylbenzene-1-sulfonamide]",≥ 10000,
"O=S(=O)(Nc1ccccc1N1CCN(c2ccc(Cl)cc2F)CC1)c1cccnc1 [Compound A-1, N-{2-[4-(4-chloro-2-fluorophenyl)piperazin-1-yl]phenyl}pyridine-3-sulfonamide]",≤ 2000,
"CS(=O)(=O)c1ccc(S(=O)(=O)Nc2cc(Cl)ccc2N2CCOCC2)cc1 [Compound A-299, N-[5-chloro-2-(morpholin-4-yl)phenyl]-4-methanesulfonylbenzene-1-sulfonamide]",≥ 10000,
"CC(c1cccc(F)c1N1[C@@H]2CCC[C@H]1CC2)S(=O)(=O)c1ccc(S(=N)(=O)N(C)C)cc1 (single isomer, unassigned) [Compound A-988, 4-((1-(2-(8-azabicyclo[3.2.1]octan-8-yl)-3-fluorophenyl)ethyl)sulfonyl)-N,N-dimethylbenzenesulfonimidamide]",≥ 10000,
"COCC1(C)CCN(c2ccccc2NS(=O)(=O)c2ccc(Cl)cc2)CC1 [Compound A-577, 4-chloro-N-{2-[4-(methoxymethyl)-4-methylpiperidin-1-yl]phenyl}benzene-1-sulfonamide]",2010 to 8000,
"CN(C)S(=O)(=O)c1ccc(S(=O)(=O)Nc2ccccc2N2CCN(C(=O)C3(F)CC3)CC2)cc1 [Compound A-461, N4-{2-[4-(1-fluorocyclopropanecarbonyl)piperazin-1-yl]phenyl}-N1,N1-dimethylbenzene-1,4-disulfonamide]",2010 to 8000,
"COCC1(C)CCN(c2ccccc2NS(=O)(=O)C2(c3ccccc3)CC2)CC1 [Compound A-649, N-{2-[4-(methoxymethyl)-4-methylpiperidin-1-yl]phenyl}-1-phenylcyclopropane-1-sulfonamide]",2010 to 8000,
